Results on four compounds are retold here after ChEMBL document CHEMBL1201862, “PubChem BioAssay data set” (2004).

Activity calls are given as the source filed them.

The target of test [1] is T1, G-protein coupled receptor 35 (Homo sapiens, UniProt Q9HC97). Briefly: SAR analysis of Antagonists of the GPR35 Receptor using an Image-Based Assay - Set 4. [Related pubchem assays (depositor defined):[…]]. In kind it is functional.
In test [2] the target is T2, Cannabinoid receptor 2 (Homo sapiens, UniProt P34972). Description: SAR analysis of agonists of the Cannabinoid Receptor 2 using an Image-Based Assay - Set 2. [Related pubchem assays (depositor defined):AID1961, AID1965]. In kind it is functional.
T2 sequence (P34972 whole entry): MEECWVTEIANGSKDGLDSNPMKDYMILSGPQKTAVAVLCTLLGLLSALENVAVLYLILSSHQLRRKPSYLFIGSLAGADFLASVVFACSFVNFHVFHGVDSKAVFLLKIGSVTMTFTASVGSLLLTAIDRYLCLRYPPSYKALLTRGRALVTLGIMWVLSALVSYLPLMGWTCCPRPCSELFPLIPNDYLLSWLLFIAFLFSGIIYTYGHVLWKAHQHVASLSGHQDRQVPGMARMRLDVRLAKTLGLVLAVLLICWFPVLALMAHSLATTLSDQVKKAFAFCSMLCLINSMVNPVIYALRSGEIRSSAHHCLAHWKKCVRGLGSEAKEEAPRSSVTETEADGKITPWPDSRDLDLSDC
Test [3] concerns the target T3, Cannabinoid receptor 1 (Homo sapiens, UniProt P21554). Description: SAR analysis of antagonists of the Cannabinoid Receptor 1 using an Image-Based Assay - Set 3. [Related pubchem assays (depositor defined):AID1961, AID1965]. In kind it is functional.
Test [4] has as its target T3, Cannabinoid receptor 1. Briefly: SAR analysis of agonists of the Cannabinoid Receptor 1 using an Image-Based Assay - Set 3. [Related pubchem assays (depositor defined):AID1961, AID1965]. It counts as functional.
For test [5], the target named is T2, Cannabinoid receptor 2. Briefly: SAR analysis of antagonists of the Cannabinoid Receptor 2 using an Image-Based Assay - Set 2. [Related pubchem assays (depositor defined):AID1961, AID1965]. It counts as functional.
In test [6] the target is G-protein coupled receptor 55 (Homo sapiens, UniProt Q9Y2T6). Description: SAR analysis of selective Agonists of GPR55 using an Image-Based Assay - Set 2. [Related pubchem assays (depositor defined):AID1961, AID1965]. In kind it is functional.
G-protein coupled receptor 55, sequence (Q9Y2T6 whole entry): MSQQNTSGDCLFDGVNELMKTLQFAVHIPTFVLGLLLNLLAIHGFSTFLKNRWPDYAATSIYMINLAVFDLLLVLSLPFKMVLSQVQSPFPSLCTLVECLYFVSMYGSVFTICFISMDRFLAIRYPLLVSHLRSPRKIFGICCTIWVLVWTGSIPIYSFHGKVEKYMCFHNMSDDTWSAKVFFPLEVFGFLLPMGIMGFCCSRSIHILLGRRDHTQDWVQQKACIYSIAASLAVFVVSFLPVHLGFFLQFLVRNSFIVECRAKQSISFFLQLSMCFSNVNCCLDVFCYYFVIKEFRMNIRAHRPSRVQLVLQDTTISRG
Test [7] addresses T1, G-protein coupled receptor 35. Description: SAR analysis of Agonists of the GPR35 Receptor using an Image-Based Assay - Set 3. [Related pubchem assays (depositor defined):AID1961, AID1965]. In kind it is functional.
Test [8] concerns the target T4, E3 ubiquitin-protein ligase XIAP (Homo sapiens, UniProt P98170). Briefly: Counter Screen using XIAP-Bir3 for Chemical Antagonists of Bir1/2 domains of IAP-family anti-apoptotic proteins. [Related pubchem assays (depositor defined):AID1018, AID1449, AID1514, AID1638, AID1749, AID1750, AID488957, AID488963]. In general terms: Counterscreens check selectivity or assay interference.

Test [9] addresses T4, E3 ubiquitin-protein ligase XIAP. Briefly: XIAP antagonists, biochemical, IAP family, fluorescence polarization (AID 1018). It counts as functional.
Test [10] deals with T5, Tyrosine-protein phosphatase non-receptor type 7 (Homo sapiens, UniProt P35236).
T5 sequence (P35236 whole entry): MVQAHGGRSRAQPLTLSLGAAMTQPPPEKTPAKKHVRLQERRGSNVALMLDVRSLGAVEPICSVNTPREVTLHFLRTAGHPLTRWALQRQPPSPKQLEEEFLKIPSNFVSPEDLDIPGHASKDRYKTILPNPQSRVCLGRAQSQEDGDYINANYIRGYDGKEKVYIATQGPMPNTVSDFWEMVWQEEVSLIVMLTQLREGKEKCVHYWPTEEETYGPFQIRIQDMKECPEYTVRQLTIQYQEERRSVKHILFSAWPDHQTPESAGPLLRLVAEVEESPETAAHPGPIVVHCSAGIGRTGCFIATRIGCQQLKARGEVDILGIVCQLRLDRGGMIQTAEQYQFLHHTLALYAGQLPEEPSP
Description: HePTP (PTPN7) phosphatase inhibitor potency, SAR follow-up, biochemical, set 2 (AID 449736). In kind it is functional.

Test [11] addresses T6, Tyrosine-protein phosphatase non-receptor type 22 (Homo sapiens, UniProt Q9Y2R2).
T6 sequence (Q9Y2R2 whole entry): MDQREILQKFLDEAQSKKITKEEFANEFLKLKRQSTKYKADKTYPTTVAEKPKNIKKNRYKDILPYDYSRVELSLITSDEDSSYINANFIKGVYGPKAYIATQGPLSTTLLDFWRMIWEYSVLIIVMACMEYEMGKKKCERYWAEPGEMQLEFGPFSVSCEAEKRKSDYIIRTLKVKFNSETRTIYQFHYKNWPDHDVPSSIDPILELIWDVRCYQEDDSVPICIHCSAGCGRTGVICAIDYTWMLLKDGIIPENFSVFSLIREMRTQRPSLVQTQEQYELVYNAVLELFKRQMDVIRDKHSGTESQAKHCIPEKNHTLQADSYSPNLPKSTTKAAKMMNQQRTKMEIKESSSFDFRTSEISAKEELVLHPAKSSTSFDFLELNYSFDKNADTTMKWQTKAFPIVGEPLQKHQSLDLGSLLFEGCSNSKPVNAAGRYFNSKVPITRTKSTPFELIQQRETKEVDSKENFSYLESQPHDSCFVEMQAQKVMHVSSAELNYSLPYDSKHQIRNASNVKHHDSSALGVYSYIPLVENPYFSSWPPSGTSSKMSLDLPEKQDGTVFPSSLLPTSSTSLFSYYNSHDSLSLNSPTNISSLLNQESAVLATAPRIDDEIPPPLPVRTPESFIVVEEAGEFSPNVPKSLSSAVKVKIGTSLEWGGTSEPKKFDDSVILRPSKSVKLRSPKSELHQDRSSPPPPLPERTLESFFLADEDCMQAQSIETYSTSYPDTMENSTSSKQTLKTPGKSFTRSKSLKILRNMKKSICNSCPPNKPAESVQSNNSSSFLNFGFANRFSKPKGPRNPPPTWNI
Briefly: SAR LYP1 Fluorescent Assay using OMFP substrate for In Vitro dose response studies - Set 3. [Related pubchem assays (depositor defined):AID1779, AID1784, AID2140, AID2686]. It counts as functional.

Test [12] has as its target T6, Tyrosine-protein phosphatase non-receptor type 22. Briefly: LYP (PTPN22) phosphatase inhibitor potency, SAR follow-up, biochemical, pCAP fluorogenic substrate, fluorescence, set 3 (AID 449727). In kind it is functional.
For test [13] the target is unchanged. Briefly: SAR LYP1 Fluorescent Assay using OMFP substrate for In Vitro dose response studies - Set 2. [Related pubchem assays (depositor defined):AID1779, AID1784, AID2140, AID449726, AID488869]. In kind it is functional.
Test [14] shares this target. Briefly: SAR LYP1 Fluorescent Assay using pCAP substrate for In Vitro dose response studies - Set 2. [Related pubchem assays (depositor defined):AID1779, AID1784, AID2135, AID449727]. It counts as functional.
The target in test [15] is Tyrosine-protein phosphatase non-receptor type 12 (Homo sapiens, UniProt Q05209). Description: SAR Selectivity Analysis of small molecule inhibitors of PEST using pCAP in a fluorescence assay. [Related pubchem assays (depositor defined):AID1779, AID1784, AID2135]. It counts as functional.
Tyrosine-protein phosphatase non-receptor type 12, sequence (Q05209 whole entry): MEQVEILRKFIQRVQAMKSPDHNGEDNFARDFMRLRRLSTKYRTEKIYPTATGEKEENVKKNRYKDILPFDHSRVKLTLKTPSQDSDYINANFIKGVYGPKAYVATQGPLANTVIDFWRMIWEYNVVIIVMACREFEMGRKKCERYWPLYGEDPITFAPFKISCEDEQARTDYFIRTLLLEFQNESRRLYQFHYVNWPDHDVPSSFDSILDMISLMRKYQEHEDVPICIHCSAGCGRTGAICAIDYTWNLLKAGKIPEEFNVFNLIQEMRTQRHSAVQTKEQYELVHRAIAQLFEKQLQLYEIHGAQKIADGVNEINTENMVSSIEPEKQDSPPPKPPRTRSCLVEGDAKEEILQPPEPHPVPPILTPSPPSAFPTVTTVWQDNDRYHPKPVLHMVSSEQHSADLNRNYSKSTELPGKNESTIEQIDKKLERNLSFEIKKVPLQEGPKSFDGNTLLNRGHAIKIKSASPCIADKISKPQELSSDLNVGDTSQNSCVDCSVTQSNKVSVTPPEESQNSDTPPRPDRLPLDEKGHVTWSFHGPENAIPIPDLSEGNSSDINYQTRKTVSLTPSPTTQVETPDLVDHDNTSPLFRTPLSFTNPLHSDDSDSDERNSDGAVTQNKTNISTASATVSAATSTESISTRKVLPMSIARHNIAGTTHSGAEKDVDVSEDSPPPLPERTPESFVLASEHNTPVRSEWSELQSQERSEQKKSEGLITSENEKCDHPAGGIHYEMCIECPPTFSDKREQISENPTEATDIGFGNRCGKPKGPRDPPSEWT
In another test the target is X-box-binding protein 1 (Homo sapiens, UniProt P17861). In kind it is functional, Cricetulus griseus.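 Note: confirmatory dose-response counter-screen serving a CHOP assay.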
X-box-binding protein 1, sequence (P17861 whole entry): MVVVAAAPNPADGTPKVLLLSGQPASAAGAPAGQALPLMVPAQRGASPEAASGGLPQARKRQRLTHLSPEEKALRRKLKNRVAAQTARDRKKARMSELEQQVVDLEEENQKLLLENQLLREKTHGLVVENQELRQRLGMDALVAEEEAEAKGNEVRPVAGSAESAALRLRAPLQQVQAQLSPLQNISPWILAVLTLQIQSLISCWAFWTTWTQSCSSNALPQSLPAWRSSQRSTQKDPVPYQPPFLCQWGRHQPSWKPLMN
Test [16] has as its target DNA damage-inducible transcript 3 protein (Mus musculus, UniProt P35639). It counts as functional, Cricetulus griseus.

T4 sequence (P98170 whole entry): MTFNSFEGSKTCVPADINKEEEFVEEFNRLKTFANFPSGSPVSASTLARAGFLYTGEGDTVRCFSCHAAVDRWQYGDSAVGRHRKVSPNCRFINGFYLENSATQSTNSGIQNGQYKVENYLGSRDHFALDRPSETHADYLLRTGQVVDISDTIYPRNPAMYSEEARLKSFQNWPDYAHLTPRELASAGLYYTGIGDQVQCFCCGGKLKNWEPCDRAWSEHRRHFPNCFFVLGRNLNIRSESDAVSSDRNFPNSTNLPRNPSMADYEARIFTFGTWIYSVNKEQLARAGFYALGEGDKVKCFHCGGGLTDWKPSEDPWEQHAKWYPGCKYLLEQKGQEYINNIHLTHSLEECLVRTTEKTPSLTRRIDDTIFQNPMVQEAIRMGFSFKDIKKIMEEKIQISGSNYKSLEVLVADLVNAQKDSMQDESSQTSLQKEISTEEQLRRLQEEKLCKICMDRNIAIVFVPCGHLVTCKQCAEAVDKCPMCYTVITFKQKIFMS
T3 sequence (P21554 whole entry): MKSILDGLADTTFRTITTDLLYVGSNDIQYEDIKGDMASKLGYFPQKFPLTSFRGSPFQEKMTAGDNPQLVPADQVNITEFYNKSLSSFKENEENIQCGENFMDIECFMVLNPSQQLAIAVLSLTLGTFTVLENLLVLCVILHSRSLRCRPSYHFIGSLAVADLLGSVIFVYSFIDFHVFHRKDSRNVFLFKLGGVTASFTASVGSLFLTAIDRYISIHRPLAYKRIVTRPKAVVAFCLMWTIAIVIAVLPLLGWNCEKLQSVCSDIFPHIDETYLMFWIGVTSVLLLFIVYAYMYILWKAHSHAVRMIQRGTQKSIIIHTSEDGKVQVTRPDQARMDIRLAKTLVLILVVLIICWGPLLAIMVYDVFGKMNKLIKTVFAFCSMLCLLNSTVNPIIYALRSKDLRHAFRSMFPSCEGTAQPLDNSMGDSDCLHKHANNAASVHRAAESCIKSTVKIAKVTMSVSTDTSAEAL
T1 sequence (Q9HC97 whole entry): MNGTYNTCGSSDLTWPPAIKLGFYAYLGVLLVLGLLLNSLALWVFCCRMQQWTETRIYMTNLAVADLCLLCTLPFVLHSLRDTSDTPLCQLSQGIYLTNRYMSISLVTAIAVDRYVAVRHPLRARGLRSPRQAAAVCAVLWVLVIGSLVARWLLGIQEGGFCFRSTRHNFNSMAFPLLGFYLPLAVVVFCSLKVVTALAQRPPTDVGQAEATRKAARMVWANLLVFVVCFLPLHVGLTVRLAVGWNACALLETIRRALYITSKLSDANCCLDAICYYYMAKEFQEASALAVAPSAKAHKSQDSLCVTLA
DNA damage-inducible transcript 3 protein, sequence (P35639 whole entry): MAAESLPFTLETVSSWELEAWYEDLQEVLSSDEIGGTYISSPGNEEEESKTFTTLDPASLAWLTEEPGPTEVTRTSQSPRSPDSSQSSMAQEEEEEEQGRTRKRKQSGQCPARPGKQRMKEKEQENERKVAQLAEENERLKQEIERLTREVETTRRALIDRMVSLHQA

The term IC50 denotes the concentration that gives 50% inhibition. The EC50 is the concentration at which the effect is half-maximal. Turning to `Cc1ccccc1N1CCN(C(=O)c2cc(S(=O)(=O)N3CCCCC3)ccc2N2CCCC2)CC1`, the IC50 (in test [1]; at Cannabinoid receptor 1 [3]; at Cannabinoid receptor 2 [5]) was > 32 µM (inactive) in each case. For the same compound, the EC50 (at Cannabinoid receptor 2 [2]; at Cannabinoid receptor 1 [4]; in test [6]; in [7]) was > 32 µM (inactive) throughout.

Regarding `CC(C)CNS(=O)(=O)c1ccc(CCC(=O)N2CCN(Cc3ccccc3)CC2)cc1`, the IC50 is > 100 µM (inactive) in test [8] and > 100 µM (not active) in [9].

With `COc1ccccc1NS(=O)(=O)c1cccc(C(=O)NN=Cc2ccc(OCC(=O)O)cc2)c1`, the IC50 in test [10], in test [11], in test [12], in test [13], in test [14] and in [15] was > 100 µM (inactive) in each case.

As to `COc1cccc(Nc2ncnc3c2cnn3-c2cccc(C)c2)c1`, at X-box-binding protein 1, the “Absolute IC50 (XBP1)” value was 10 µM. The “Absolute IC50 (CHOP)” value in test [16] was determined as 10 µM.
